Reference: patent US8338392B2, “MicroRNA modulators and method for identifying and using the same” (The Wistar Institute, priority 2008, dated 2012)
“Also recorded” adds a separate entry of the source.

Legend:
Type in all cases: cell-based, human
[1] = tested on: miR-21; test: Luc-miR-21 luciferase reporter assay in HeLa cells; settings: for Luciferase Assay: HeLa cells with Luc-miR-21 reporter, screen at 10 μM, 48 hours
Description: (§1) MicroRNA miR-21 was selected as a target miRNA due to its involvement as an anti-apoptotic factor in cancer cells and its elevated levels in various cancers such as breast, ovarian, and lung cancer as well as glioblastoma (Chan, et al. (2005) Cancer Res. 65:6029). Lentiviral reporter constructs for miRNA activity were assembled by introducing the complementary sequences of mature miR-21 (5′-UAGCUUAUCAGACUGAUGUUGA-3′; SEQ ID NO:13), miR-30A (5′-CUUUCAGUCGGAUGUUUGCAGC-3′; SEQ ID NO:14) as a specificity control, and a linker sequence (a previously present multiple-cloning site with no detectable recognition by natural miRNAs) downstream of a luciferase reporter gene as a negative control (FIG. 1).
(§2) Luc-miR-21, Luc-miR-30A, and Luc-linker (control) were, by viral infection, introduced into HeLa cells, which express high levels of miR-21, but only low levels of miR-30A (Cheng, et al. (2005) Nucl. Acids Res. 33:1290).
To illustrate the method of the present invention, a primary screen of >1000 compounds was conducted. The library was composed of a collection of novel compounds and the Library of Pharmacologically Active Compounds (LOPAC library, Sigma-Aldrich, St Louis, Mo.). All compounds were stored at a 10 mM concentration in DMSO to keep the DMSO concentration in the actual screen at 0.1% thereby minimizing toxicity. HeLa cells stably expressing the miR-reporter were treated with DMSO ranging from 0.1-1%. Luciferase signals were determined 48 hours after the treatment.
HeLa cells (2500 cells) were plated in each well of 384-well plate 24 hour before the addition of compounds. Compounds at 10 μM final concentration were added to each well. Luciferase signal were determined 48 hours after compound treatment. Using this screening assay, compound 1 was identified as a miR-21 antagonist.

[2] = tested on: mature miR-21; test: Quantitative RT-PCR of mature miR-21; settings: for mature miR-21 expression upon treatment: HCT116 colon cancer cells and A172 glioblastoma cells
Description: (§3) UNG (Applied Biosystems). […] (Sigma). […] ID NO:18); E-cadherin: forward [NT] ID NO:19), reverse [NT] ID NO:20); Fibronectin: forward [NT] ID NO:21), reverse [NT] ID NO:22); RAP1A: forward [NT] ID NO:23), reverse [NT]

[3] = tested on: primary miR-21 (pri-miR-21); test: Quantitative RT-PCR of primary miR-21; settings: for primary miR-21 expression upon treatment: HCT116 colon cancer cells and A172 glioblastoma cells
Description: UNG (Applied Biosystems). […] (Sigma).

[4] = tested on: mature miR-30; test: Quantitative RT-PCR of mature miR-30; settings: MDA-MB-231, MCF-7 and A172 cell lines
Description: as §3

[5] = tested on: mature miR-93; test: Quantitative RT-PCR of mature miR-93; settings: MDA-MB-231, MCF-7 and A172 cell lines
Description: as §3

[6] = tested on: miR-30; test: miR-30 luciferase reporter in HeLa cells expressing miR-30; settings: HeLa cells expressing miR-30 reporter and miR-30, 10 μM
Description: as §1
The specificity of the reporter system was tested by assaying cells which contained both the Luc-miR-30A reporter and a construct expressing exogenous miR-30.
(§4) It was subsequently determined whether Compound 2 was a specific inhibitor of miR-21 or whether it could interfere with the general miRNA biogenesis pathway. Thus, HeLa cells stably expressing both the miR-30 luciferase reporter construct and miR-30 were treated with Compound 2.

[7] = tested on: HCT116 colon cancer cells; test: Cell proliferation of HCT116 cells, drug combinations
Description: The % activity indicates % live cell activity.

[8] = tested on: Luc-Linker control; test: Luc-Linker control luciferase reporter in HeLa cells; settings: 10 μM, relative to DMSO, listed as diazobenzene 2
Description: as §1, §2, §4

[9] = MDA-MB-231, MCF-7 and A172 cell lines

C[C@]12CC[C@@H]3c4ccc(O)cc4CC[C@H]3[C@@H]1CCC2=O [Estrone, estrone, reference compound]
Luciferase Assay [1]: 2.76

COc1cc(/C=C/C(=O)CC(=O)/C=C/c2ccc(O)c(OC)c2)ccc1O [Curcumin, curcumin]
mature miR-21 expression upon treatment [2]: increased
primary miR-21 expression upon treatment [3]: increased

Cn1c2c(c3ccccc3c1=O)C(=O)c1cc3c(cc1-2)OCO3 [Compound 4]
Luciferase Assay [1]: 3.12

COc1ccc2c(c1[N+](=O)[O-])CCC1C2CC[C@]2(C)C(=O)CCC12 (stereo partly shown) [Compound 6]
Luciferase Assay [1]: 3.34

COc1ccc2c(c1N)CCC1C2CC[C@]2(C)C(=O)CCC12 (stereo partly shown) [Compound 7]
Luciferase Assay [1]: 3.04-3.87

C#CCNC(=O)c1ccc(/N=N/c2ccccc2)cc1 [Compound 2, (E)-4-(Phenyldiazenyl)-N-(prop-2-ynyl)benzamide]
effect on mature miR-30 [4]: no effect
effect on mature miR-21 [2, 9]: suppressed
effect on primary miR-21 [3, 9]: suppressed
effect on mature miR-93 [5]: no effect
effect on luciferase signal, miR-30 reporter [6]: no increase of the luciferase signal was detected
effect on luciferase signal, miR-30 reporter ([6]; listed as diazobenzene 2): does not affect
proliferation of HCT116 cells, combination with 5-FU ([7]; combination with 5-FU): synergistic effect; also recorded: synergistically decrease the proliferation
proliferation of HCT116 cells, combination with Curcumin ([7]; combination with Curcumin): synergistic effect; also recorded: synergistically decrease the proliferation
effect on luciferase signal, Luc-Linker control [8]: does not affect; also recorded: did not affect the luciferase signal
fold increase of the luciferase signal ([1]; 10 μM, HeLa cells): 5 fold
Luciferase Assay [1]: 4.83

C#CCNC(=O)c1ccc(NNc2ccccc2)cc1 [Compound 3]
Luciferase Assay [1]: 3.67

O=C1c2cc3c(cc2-c2[nH]c(=O)c4ccccc4c21)OCO3 [Compound 5]
Luciferase Assay [1]: 2.92

O=c1[nH]cc(F)c(=O)[nH]1 [Compound 5-FU, 5-fluorouracil]
mature miR-21 expression upon treatment [2]: increased
primary miR-21 expression upon treatment [3]: increased

COc1cc2c(cc1N)C1CC[C@]3(C)C(=O)CCC3C1CC2 (stereo partly shown) [Compound 8]
Luciferase Assay [1]: 3.50
